For the test, the target named is T1, hGIP-R (Homo sapiens, UniProt P48546).
T1 construct: expressed in transfected cells; host or cells: HEK-293 clonal cell lines
T1 sequence (P48546 22-466): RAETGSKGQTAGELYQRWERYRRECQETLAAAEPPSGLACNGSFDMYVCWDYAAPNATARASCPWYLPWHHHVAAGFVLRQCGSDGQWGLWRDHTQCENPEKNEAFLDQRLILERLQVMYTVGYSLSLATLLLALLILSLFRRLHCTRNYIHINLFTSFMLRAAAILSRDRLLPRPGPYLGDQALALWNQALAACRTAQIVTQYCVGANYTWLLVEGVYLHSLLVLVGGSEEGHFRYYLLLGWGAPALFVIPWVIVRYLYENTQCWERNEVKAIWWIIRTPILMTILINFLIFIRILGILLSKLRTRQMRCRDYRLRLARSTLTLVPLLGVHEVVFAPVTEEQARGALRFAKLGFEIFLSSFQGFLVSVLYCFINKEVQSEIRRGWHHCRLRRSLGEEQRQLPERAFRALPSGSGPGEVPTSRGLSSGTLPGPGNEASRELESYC
Description: Functional hGIP-R Assay (cAMP formation, HTRF). It is filed as cell-based. The conditions noted are these: for Emax: cAMP efficacy, percent of maximal response to GIP(1-42)OH, 37° C., 0.1% bovine casein, arithmetic mean ± SEM; for EC50: cAMP potency, HEK-293 cells expressing hGIP-R, incubated at 37° C. in the presence of 0.1% bovine casein, geometric mean, read-out: Human GIP-R EC50, nM (SEM, n). In outline:
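Relative EC50 and Emax came from four-parameter logistic fits of cAMP as a percent of the human GIP (1-42) OH maximal response. The cAMP was measured by competitive HTRF after 30 min, 37 °C compound exposure of hGIP-R HEK-293 clones in IBMX (250 μM)-containing medium.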
Background: cAMP levels reflect the balance of adenylyl cyclase and phosphodiesterase activity.

Consider `Cn1cc(C[C@H](C(=O)NC(C)(C)Cn2nc(C(F)(F)F)cc2-c2ccc(=O)n(C)c2)N2CC[C@@]3(C[C@@H]3c3ccc(-c4cnc5nn(C)cc5c4)cc3)C2=O)cn1` [Example 98, (R)—N-(2-Methyl-1-(5-(1-methyl-6-oxo-1,6-dihydropyridin-3-yl)-3-(trifluoromethyl)-1H-pyrazol-1-yl)propan-2-yl)-3-(1-methyl-1H-pyrazol-4-yl)-2-((1R,3R)-1-(4-(2-methyl-2H-pyrazolo[3,4-b]pyridin-5-yl)phenyl)-4-oxo-5-azaspiro[2.4]heptan-5-yl)propanamide], for which the Emax (commonly the maximal effect, on the per cent scale that the assay sets) was 110 ± 3.22% and the concentration for a half-maximal effect (EC50) – broadly, the concentration that produces a half-maximal response – turned out to be 35.5 nM.
Taken in the same sequence, the figures for `Cc1cn2cc(-c3ccc([C@H]4C[C@@]45CCN([C@H](Cc4cnn(C(F)F)c4)C(=O)NC(C)(C)Cn4nc(C(F)(F)F)cc4-c4cc(F)c(=O)n(C)c4)C5=O)c(F)c3)cnc2n1` [Example 100, (2R)-3-(1-(Difluoromethyl)-1H-pyrazol-4-yl)-N-(1-(5-(5-fluoro-1-methyl-6-oxo-1,6-dihydropyridin-3-yl)-3-(trifluoromethyl)-1H-pyrazol-1-yl)-2-methylpropan-2-yl)-2-((1S,3R)-1-(2-fluoro-4-(2-methylimidazo[1,2-a]pyrimidin-6-yl)phenyl)-4-oxo-5-azaspiro[2.4]heptan-5-yl)propanamide] were 70.9 ± 1.67% and 3.47 nM.
Taken in the same sequence, the figures for `Cn1cc2cc(-c3ccc([C@H]4C[C@@]45CCN([C@H](Cc4cnn(C(F)F)c4)C(=O)NC(C)(C)Cn4nc(C(F)(F)F)cc4-c4ccc(=O)n(C)c4)C5=O)c(F)c3)cnc2n1` [Example 117, (2R)-3-(1-(Difluoromethyl)-1H-pyrazol-4-yl)-2-((1S,3R)-1-(2-fluoro-4-(2-methyl-2H-pyrazolo[3,4-b]pyridin-5-yl)phenyl)-4-oxo-5-azaspiro[2.4]heptan-5-yl)-N-(2-methyl-1-(5-(1-methyl-6-oxo-1,6-dihydropyridin-3-yl)-3-(trifluoromethyl)-1H-pyrazol-1-yl)propan-2-yl)propanamide] were 56 ± 3.91% and 4.39 nM.
The like results for `[2H]C([2H])([2H])n1cc(-c2cc(C(F)(F)F)nn2CC(C)(C)NC(=O)[C@@H](Cc2cnn(C(F)F)c2)N2CC[C@@]3(C[C@@H]3c3ccc(-c4cnc5nn(C)cc5c4)cc3)C2=O)ccc1=O` [Example 120, (R)-3-(1-(Difluoromethyl)-1H-pyrazol-4-yl)-N-(2-methyl-1-(5-(1-(methyl-d3)-6-oxo-1,6-dihydropyridin-3-yl)-3-(trifluoromethyl)-1H-pyrazol-1-yl)propan-2-yl)-2-((1R,3R)-1-(4-(2-methyl-2H-pyrazolo[3,4-b]pyridin-5-yl)phenyl)-4-oxo-5-azaspiro[2.4]heptan-5-yl)propanamide] were, in that order, 72.4 ± 2.16% and 33.5 nM.
As for `Cn1cc2cc(-c3ccc([C@H]4C[C@@]45CCN([C@H](Cc4cnn(C(F)F)c4)C(=O)NC(C)(C)Cn4nc(C(F)(F)F)cc4-c4ccc(OC(F)F)nn4)C5=O)cc3)cnc2n1` [Example 121, (R)-N-(1-(5-(6-(Difluoromethoxy)pyridazin-3-yl)-3-(trifluoromethyl)-1H-pyrazol-1-yl)-2-methylpropan-2-yl)-3-(1-(difluoromethyl)-1H-pyrazol-4-yl)-2-((1R,3R)-1-(4-(2-methyl-2H-pyrazolo[3,4-b]pyridin-5-yl)phenyl)-4-oxo-5-azaspiro[2.4]heptan-5-yl)propanamide], the Emax was found to be 74.6 ± 1.47% and the 50% effective concentration (EC50) was 107 nM.
`Cc1nc(C2CC2)nc(O)c1-c1cc(C(F)(F)F)nn1CC(C)(C)NC(=O)[C@@H](Cc1cnn(C(F)F)c1)N1CC[C@@]2(C[C@@H]2c2ccc(-c3cnc4nn(C)cc4c3)cc2)C1=O` [Example 122, (R)-N-(1-(5-(2-Cyclopropyl-4-hydroxy-6-methylpyrimidin-5-yl)-3-(trifluoromethyl)-1H-pyrazol-1-yl)-2-methylpropan-2-yl)-3-(1-(difluoromethyl)-1H-pyrazol-4-yl)-2-((1R,3R)-1-(4-(2-methyl-2H-pyrazolo[3,4-b]pyridin-5-yl)phenyl)-4-oxo-5-azaspiro[2.4]heptan-5-yl)propanamide]: the Emax turned out to be 90.8 ± 7.25% and the EC50 amounted to 103 nM.
Taken in the same sequence, the figures for `Cn1cc2cc(-c3ccc([C@H]4C[C@@]45CCN([C@H](Cc4cnn(C(F)F)c4)C(=O)NC(C)(C)Cn4nc(C(F)(F)F)cc4-c4cccn(CC#N)c4=O)C5=O)cc3)cnc2n1` [Example 123, (R)-N-(1-(5-(1-(Cyanomethyl)-2-oxo-1,2-dihydropyridin-3-yl)-3-(trifluoromethyl)-1H-pyrazol-1-yl)-2-methylpropan-2-yl)-3-(1-(difluoromethyl)-1H-pyrazol-4-yl)-2-((1R,3R)-1-(4-(2-methyl-2H-pyrazolo[3,4-b]pyridin-5-yl)phenyl)-4-oxo-5-azaspiro[2.4]heptan-5-yl)propanamide] were 95.7 ± 6.9% and 18.7 nM.
Taken in the same sequence, the figures for `Cn1cc2cc(-c3ccc([C@H]4C[C@@]45CCN([C@H](Cc4cnn(C(F)F)c4)C(=O)NC(C)(C)Cn4nc(C(F)(F)F)cc4-c4cc(F)c(CO)cc4F)C5=O)cc3)cnc2n1` [Example 124, (R)-N-(1-(5-(2,5-Difluoro-4-(hydroxymethyl)phenyl)-3-(trifluoromethyl)-1H-pyrazol-1-yl)-2-methylpropan-2-yl)-3-(1-(difluoromethyl)-1H-pyrazol-4-yl)-2-((1R,3R)-1-(4-(2-methyl-2H-pyrazolo[3,4-b]pyridin-5-yl)phenyl)-4-oxo-5-azaspiro[2.4]heptan-5-yl)propanamide] were 56.9 ± 11.2% and 55.6 nM.
Taken in the same sequence, the figures for `Cn1cc2cc(-c3ccc([C@H]4C[C@@]45CCN([C@H](Cc4cnn(C(F)F)c4)C(=O)NC(C)(C)Cn4nc(C(F)(F)F)cc4-c4ccc(=O)n(CC(F)(F)F)c4)C5=O)cc3)cnc2n1` [Example 125, (R)-3-(1-(Difluoromethyl)-1H-pyrazol-4-yl)-N-(2-methyl-1-(5-(6-oxo-1-(2,2,2-trifluoroethyl)-1,6-dihydropyridin-3-yl)-3-(trifluoromethyl)-1H-pyrazol-1-yl)propan-2-yl)-2-((1R,3R)-1-(4-(2-methyl-2H-pyrazolo[3,4-b]pyridin-5-yl)phenyl)-4-oxo-5-azaspiro[2.4]heptan-5-yl)propanamide] were 68.5 ± 6.59% and 38.5 nM.
In the case of `Cn1cc2cc(-c3ccc([C@H]4C[C@@]45CCN([C@H](Cc4cnn(C(F)F)c4)C(=O)NC(C)(C)Cn4nc(C(F)(F)F)cc4-c4cccn(CC(N)=O)c4=O)C5=O)cc3)cnc2n1` [Example 126, (R)-N-(1-(5-(1-(2-Amino-2-oxoethyl)-2-oxo-1,2-dihydropyridin-3-yl)-3-(trifluoromethyl)-1H-pyrazol-1-yl)-2-methylpropan-2-yl)-3-(1-(difluoromethyl)-1H-pyrazol-4-yl)-2-((1R,3R)-1-(4-(2-methyl-2H-pyrazolo[3,4-b]pyridin-5-yl)phenyl)-4-oxo-5-azaspiro[2.4]heptan-5-yl)propanamide], the Emax came to 93.6 ± 1.06% and the EC50 was 42.3 nM.
Taken in the same sequence, the figures for `CNC(=O)Cn1cc(-c2cc(C(F)(F)F)nn2CC(C)(C)NC(=O)[C@@H](Cc2cnn(C(F)F)c2)N2CC[C@@]3(C[C@@H]3c3ccc(-c4cnc5nn(C)cc5c4)cc3)C2=O)cn1` [Example 127, (R)-3-(1-(Difluoromethyl)-1H-pyrazol-4-yl)-N-(2-methyl-1-(1′-(2-(methylamino)-2-oxoethyl)-5-(trifluoromethyl)-1′H,2H-[3,4′-bipyrazol]-2-yl)propan-2-yl)-2-((1R,3R)-1-(4-(2-methyl-2H-pyrazolo[3,4-b]pyridin-5-yl)phenyl)-4-oxo-5-azaspiro[2.4]heptan-5-yl)propanamide] were 56.1 ± 4.15% and 60.1 nM.
The like results for `Cc1c(-c2cc(C(F)(F)F)nn2CC(C)(C)NC(=O)[C@@H](Cc2cnn(C(F)F)c2)N2CC[C@@]3(C[C@@H]3c3ccc(-c4cnc5nn(C)cc5c4)cc3)C2=O)cn(C)c(=O)c1C#N` [Example 128, (R)-N-(1-(5-(5-Cyano-1,4-dimethyl-6-oxo-1,6-dihydropyridin-3-yl)-3-(trifluoromethyl)-1H-pyrazol-1-yl)-2-methylpropan-2-yl)-3-(1-(difluoromethyl)-1H-pyrazol-4-yl)-2-((1R,3R)-1-(4-(2-methyl-2H-pyrazolo[3,4-b]pyridin-5-yl)phenyl)-4-oxo-5-azaspiro[2.4]heptan-5-yl)propanamide] were, in that order, 85.2 ± 1.24% and 163 nM.
Taken in the same sequence, the figures for `Cn1cc2cc(-c3ccc([C@H]4C[C@@]45CCN([C@H](Cc4cnn(C(F)F)c4)C(=O)NC(C)(C)Cn4nc(C(F)(F)F)cc4-c4cn(C)c(=O)c6ccccc46)C5=O)cc3)cnc2n1` [Example 129, (R)-3-(1-(Difluoromethyl)-1H-pyrazol-4-yl)-N-(2-methyl-1-(5-(2-methyl-1-oxo-1,2-dihydroisoquinolin-4-yl)-3-(trifluoromethyl)-1H-pyrazol-1-yl)propan-2-yl)-2-((1R,3R)-1-(4-(2-methyl-2H-pyrazolo[3,4-b]pyridin-5-yl)phenyl)-4-oxo-5-azaspiro[2.4]heptan-5-yl)propanamide] were 78.6 ± 6.28% and 138 nM.

These data come from US20260108546A1 (ELI LILLY AND COMPANY, priority 2024, published 2026).
